Series [1] concerns the target T1, human serum albumin (HSA) (Homo sapiens, UniProt P02768).
T1 construct: Human serum albumin (HSA), fraction V, crystallized and lyophilized; purchased Biomed (Lublin, Poland)
Put plainly: Equilibrium dialysis: individual and simultaneous binding (displacement) of 6-MP and site I markers to HSA. As for the experimental part: Equilibrium dialysis experiment was performed with bags of 5 cm length made from cellulose tubing, 25 mm diameter when inflated (Dialysis Tubing Cellulose Membranes with molecular weight cut-off of 12 kDa, Sigma Aldrich Co). […] The tubes were closed with parafilm, and were stirred constantly at 20 rotations per minute, at 23 °C. A solution of drug(s) in the compartment B and a solution of albumin in the compartment A were allowed to equilibrate. […] The volumes of the solutions in two compartments remained constant during the dialysis procedure and were not corrected. […] Dialysis with each ligand or mixture of ligands was performed in fivefold and the average value of C b was used as binding data. Protein concentration was 1 × 10^−5 M and ligands concentration was 0.8 × 10^−5 M.
The free-ligands concentrations in compartment B at the beginning of the dialysis and after equilibrium were determined by HPLC. […] A column of LiChrospher 100 RP-18 (5 μm in 4 × 250 mm) (Merck KGaA) was used as the stationary phase. […] All solvents were filtered and degassed prior to use. The injection volume was 50 μL in all the cases. The free ligand concentration was determined using a calibration curve obtained from the concentration of dialyzed ligand in the absence of albumin.
The bound ligand concentration (Cb) was calculated by estimation of free-ligand concentration (Cf) according to the equation [57]:1 [drawing 3] where CL(b) was concentration of bound ligand, CL(f) was final concentration of ligand in buffer compartment and CL(0) was starting concentration of ligand (total ligand concentration before equilibrium dialysis).
The percent binding before and after displacement was compared by using a two-way analysis of variance for balanced data. The confidence intervals based on the residual variance were computed for each pairs of bound fraction before and after displacement.
(In general: In equilibrium dialysis free small molecules cross a membrane that holds back macromolecules.)

A further series concerns HSA. As to conditions: data from the literature ref 32; cited from earlier work.
On the set-up of series [2]: method as in earlier work. As to conditions: cited from earlier work.

These results are taken from article PMC3483484 (The Protein Journal, 2012).

T1 sequence (P02768 25-609): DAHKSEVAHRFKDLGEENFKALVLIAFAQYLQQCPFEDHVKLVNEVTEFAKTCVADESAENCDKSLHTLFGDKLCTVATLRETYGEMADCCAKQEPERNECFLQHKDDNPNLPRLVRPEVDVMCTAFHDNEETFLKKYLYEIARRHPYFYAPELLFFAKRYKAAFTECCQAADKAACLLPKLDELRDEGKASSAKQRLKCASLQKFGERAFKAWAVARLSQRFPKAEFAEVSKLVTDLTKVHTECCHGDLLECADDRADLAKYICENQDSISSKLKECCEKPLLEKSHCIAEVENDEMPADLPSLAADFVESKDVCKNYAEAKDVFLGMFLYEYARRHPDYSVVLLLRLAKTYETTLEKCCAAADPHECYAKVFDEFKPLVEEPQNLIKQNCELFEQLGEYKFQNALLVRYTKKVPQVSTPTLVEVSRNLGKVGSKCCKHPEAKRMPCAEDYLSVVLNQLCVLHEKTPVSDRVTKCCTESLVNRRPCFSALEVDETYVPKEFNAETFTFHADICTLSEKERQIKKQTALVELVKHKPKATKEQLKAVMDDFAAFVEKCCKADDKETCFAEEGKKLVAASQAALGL

Take `CCCCOC(=O)c1ccc(N)cc1` [ABE, n-butyl p-aminobenzoate]: the “decrease of free fraction (Δ%) of ABE” value in series [1] (by addition of 6-MP, versus ABE alone, p < 0.05) was determined as 3.5%. Further, in series [1] (from fb by Eq. (6), before displacement, HSA 1 × 10^−5 M, read-out: Primary association constant log Kexp^HSA (converted)), the Kd is 17 µM. For the same molecule, the “Bound ligand fraction (fb%) before displacement” value in series [1] (individual binding, HSA 1 × 10^−5 M, ligand 0.8 × 10^−5 M, pH 7.4, 23 °C) is 37.3 ± 0.7%. The “Bound ligand fraction (fb%) of site marker after displacement” value in series [1] (simultaneous binding, in presence of 6-MP, HSA 1 × 10^−5 M, ligands 0.8 × 10^−5 M) was 39.5 ± 0.6%. Further, the “Primary association constant log Klit^HSA” value in the series with HSA was 4.45.

As for `Sc1ncnc2nc[nH]c12` [6-MP, 6-Mercaptopurine], the “bound to serum proteins” value in series [2] (humans, of the administered dose ref 39) is “approximately 19%”. In series [2] (oral dose, humans ref 39), the half-life in plasma is 20 to 45 min.
